Experiments:
[1] = biological target: T1, Glutamate-1-semialdehyde aminomutase (GSAM) from Synechococcus (Synechococcus elongatus, UniProt P24630); assay: half-transamination converting native enzyme into PMP form, followed by gel filtration and absorbance; assay type: biochemical; details: reaction intermediate, racemic, 5 mM; 100 mM Na-Tricine pH 7.9
T1 construct: gene hemL; homodimer; mobile loop residues 153-181; Trp53 and Trp67

[2] = biological target: T1, Glutamate-1-semialdehyde aminomutase (GSAM) from Synechococcus; assay: half-transamination converting native enzyme into PLP form, followed by gel filtration and absorbance; assay type: biochemical; details: substrate analogue, 20 mM; 100 mM Na-Tricine pH 7.9

T1 sequence (P24630 2-433): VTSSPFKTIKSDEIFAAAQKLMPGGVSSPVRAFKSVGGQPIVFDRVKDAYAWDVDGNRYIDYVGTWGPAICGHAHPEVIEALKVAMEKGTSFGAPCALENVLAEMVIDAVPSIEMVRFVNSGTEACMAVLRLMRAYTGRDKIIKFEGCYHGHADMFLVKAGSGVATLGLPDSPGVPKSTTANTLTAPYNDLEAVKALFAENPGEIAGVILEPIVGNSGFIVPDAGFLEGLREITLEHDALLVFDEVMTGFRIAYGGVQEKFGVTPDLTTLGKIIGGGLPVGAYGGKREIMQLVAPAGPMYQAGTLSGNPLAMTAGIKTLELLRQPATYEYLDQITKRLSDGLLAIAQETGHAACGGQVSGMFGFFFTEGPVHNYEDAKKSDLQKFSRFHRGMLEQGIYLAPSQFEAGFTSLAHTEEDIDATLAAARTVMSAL

## NCC(N)CCC(=O)O (racemic) [DAVA, 4,5-diaminovalerate]
[1]
  half-transamination converting native enzyme into PMP form, followed by gel filt: the PMP form (PMP-GSAM), obtained by the addition of DAVA

## O=CCCC(=O)O [succinic semialdehyde]
[2]
  half-transamination converting native enzyme into PLP form, followed by gel filt: PLP-GSAM), obtained by treating the native enzyme with succinic-1-semialdehyde

— PMC3747428, “Asymmetry of the Active Site Loop Conformation between Subunits of Glutamate-1-semialdehyde Aminomutase in Solution” (BioMed Research International, 2013)
